# ChEMBL document CHEMBL5523737, “Novel Jatrophane Diterpenoids from Euphorbia esula Promotes Lipid Clearance by Transcriptional Regulation of PCSK9” (J Med Chem, 2024)
# Calls of active or inactive are those of the source. The calls are words filed in the database; no cut-off is given here.
# Columns and labels:
# HepG2 [1] = assay: Induction of LDL uptake in human HepG2 cells incubated for 3 hrs under dark condition by DiI-LDL DMEM staining based fluorescence microplate reader assay; type: functional, cell-based
# [2] = biological target: Proprotein convertase subtilisin/kexin type 9 (Homo sapiens) (UniProt Q8NBP7); assay: Inhibition of PCSK9 (unknown origin) promoter activity expressed in HEK293 cells co-transfected with SV40 at 5 to 10 uM incubated for 24 hrs by dual luciferase assay; type: cell-based; conditions: dose 5-10 µM
# HepG2 [3] = assay: Induction of LDL uptake in HNF1alpha knockdown human HepG2 cells at 5 uM incubated for 3 hrs under dark condition by DiI-LDL DMEM staining based fluorescence microplate reader assay; type: functional, cell-based
# [4] = biological target: Proprotein convertase subtilisin/kexin type 9 (Homo sapiens) (UniProt Q8NBP7); assay: Inhibition of PCSK9 transcription in human HepG2 cells at 5 uM by AlphaLISA method; type: cell-based
# [5] = biological target: Proprotein convertase subtilisin/kexin type 9 (Homo sapiens) (UniProt Q8NBP7); assay: Inhibition of PCSK9 transcription in human HepG2 cells by AlphaLISA method; type: cell-based
# [6] = Cytotoxicity against human HepG2 cells assessed as cell viability at 20 uM after 24 hrs by CCK8 assay; type: toxicity, cell-based; conditions: read-out: Activity
Compound,Activity (HepG2 [1]),inhibition [2],Activity (HepG2 [3]),inhibition [4],inhibition [5],"viability at 24 h, 20 µM [6]"
C=C1[C@@H](OC(C)=O)[C@H]2[C@@H](OC(=O)[C@@H](C)CC)[C@@H](C)C[C@]2(OC(C)=O)C(=O)[C@H](C)/C=C/C(C)(C)[C@H](OC(C)=O)[C@@H](OC(C)=O)[C@H]1OC(C)=O,Active,Active,Active,56.1%,Dose-Dependent Effect,> 95%
C=C1[C@@H](OC(C)=O)[C@H]2[C@@H](OC(C)=O)[C@](C)(OC(=O)Cc3ccccc3)C[C@]2(OC(C)=O)C(=O)[C@H](C)/C=C/C(C)(C)[C@H](OC(=O)c2cccnc2)C[C@H]1OC(=O)C(C)C,Active,Active,Active,56.1%,Dose-Dependent Effect,> 95%
C=C1[C@@H](OC(C)=O)[C@H]2[C@@H](OC(C)=O)[C@](C)(OC(C)=O)C[C@]2(OC(C)=O)C(=O)[C@H](C)/C=C/C(C)(C)C(=O)[C@@H](OC(=O)C(C)C)[C@H]1OC(=O)CC,Active,,,28%,Dose-Dependent Effect,> 95%
C=C1[C@@H](OC(C)=O)[C@H]2[C@@H](OC(C)=O)[C@](C)(OC(C)=O)C[C@]2(OC(C)=O)C(=O)[C@H](C)/C=C/C(C)(C)C(=O)[C@@H](OC(=O)C(C)C)[C@H]1OC(=O)C(C)C,Active,,,30.4%,Dose-Dependent Effect,> 95%
C=C1[C@@H](OC(C)=O)[C@H]2[C@@H](OC(C)=O)[C@](C)(OC(C)=O)C[C@]2(OC(C)=O)C(=O)[C@H](C)[C@]2(C)O[C@H]2C(C)(C)[C@H](OC(C)=O)[C@@H](OC(C)=O)[C@H]1OC(=O)C(C)C,,,,1.2%,,
C=C1[C@@H](OC(C)=O)[C@H]2[C@@H](OC(C)=O)[C@](C)(OC(C)=O)C[C@]2(OC(C)=O)C(=O)[C@H](C)[C@]2(C)O[C@H]2C(C)(C)[C@H](OC(C)=O)[C@@H](OC(=O)C(C)C)[C@H]1OC(=O)C(C)C,,,,0.1%,,
C=C1[C@@H](OC(C)=O)[C@H]2[C@@H](OC(C)=O)[C@@H](C)C[C@]2(OC(C)=O)C(=O)[C@H](C)/C=C/C(C)(C)[C@H](OC(=O)c2ccccc2)[C@@H](OC(C)=O)[C@H]1OC(C)=O,,,,3.1%,,
